Source: US20130065763A1, “Biocide Compositions Comprising Isoamyl Lactate” (priority 2010, published 2013)

Assay: Solubility in water of each lactate
Assay type: physicochemical
Conditions: for Solubility in Water: solubility of the lactate solvent in water, yes = water soluble
Method: Solubility of several pesticides was measured in Isoamyl lactate versus other lactates. In addition the solubility in water of each lactate has been checked.

Row | Solubility in Water | Water solubility (statement in description) | SMILES
1 | <1% | not water soluble | CC(C)CCOC(=O)C(C)O (stereo not shown) [Example 6, Isoamyl lactate]
2 | yes | – | CCCCOC(=O)C(C)O (stereo not shown) [Example C3, Butyl lactate]
3 | yes | – | CC(C)OC(=O)C(C)O (stereo not shown) [Example C4, Isopropyl lactate]
